One test deals with Acetylcholinesterase (Homo sapiens, UniProt P22303). Put plainly: Inhibition of AChE assessed as hydrolysis of acetylcholine preincubated for 15 mins measured after 15 mins by colorimetric Ellman assay. In general terms: Ellman's reagent forms a yellow product with free thiols.
Another test concerns the target Cholinesterase (Homo sapiens, UniProt P06276). The test can be described thus: Inhibition of BChE assessed as hydrolysis of butrylcholine preincubated for 15 mins measured after 15 mins by colorimetric Ellman assay.

pIC50: −log10 of the molar value.

In general, pIC50 refers to the IC50 on a negative log10 scale, so that one unit is a factor of ten.

Sequence of Cholinesterase (P06276 whole entry): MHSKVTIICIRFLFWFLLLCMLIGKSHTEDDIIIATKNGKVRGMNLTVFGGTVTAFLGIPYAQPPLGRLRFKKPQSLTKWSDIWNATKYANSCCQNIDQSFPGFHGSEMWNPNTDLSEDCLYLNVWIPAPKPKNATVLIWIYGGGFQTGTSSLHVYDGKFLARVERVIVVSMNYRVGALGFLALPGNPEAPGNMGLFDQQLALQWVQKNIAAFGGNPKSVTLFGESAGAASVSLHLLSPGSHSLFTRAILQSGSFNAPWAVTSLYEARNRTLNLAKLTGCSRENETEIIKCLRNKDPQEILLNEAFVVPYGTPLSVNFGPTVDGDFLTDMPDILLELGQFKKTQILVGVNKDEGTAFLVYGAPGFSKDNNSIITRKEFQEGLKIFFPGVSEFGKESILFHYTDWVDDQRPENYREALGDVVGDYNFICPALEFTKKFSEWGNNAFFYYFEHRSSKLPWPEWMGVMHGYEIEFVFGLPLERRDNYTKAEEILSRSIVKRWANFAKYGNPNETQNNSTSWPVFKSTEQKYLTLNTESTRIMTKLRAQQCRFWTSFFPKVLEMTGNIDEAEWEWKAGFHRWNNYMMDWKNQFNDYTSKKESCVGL
Sequence of Acetylcholinesterase (P22303 whole entry): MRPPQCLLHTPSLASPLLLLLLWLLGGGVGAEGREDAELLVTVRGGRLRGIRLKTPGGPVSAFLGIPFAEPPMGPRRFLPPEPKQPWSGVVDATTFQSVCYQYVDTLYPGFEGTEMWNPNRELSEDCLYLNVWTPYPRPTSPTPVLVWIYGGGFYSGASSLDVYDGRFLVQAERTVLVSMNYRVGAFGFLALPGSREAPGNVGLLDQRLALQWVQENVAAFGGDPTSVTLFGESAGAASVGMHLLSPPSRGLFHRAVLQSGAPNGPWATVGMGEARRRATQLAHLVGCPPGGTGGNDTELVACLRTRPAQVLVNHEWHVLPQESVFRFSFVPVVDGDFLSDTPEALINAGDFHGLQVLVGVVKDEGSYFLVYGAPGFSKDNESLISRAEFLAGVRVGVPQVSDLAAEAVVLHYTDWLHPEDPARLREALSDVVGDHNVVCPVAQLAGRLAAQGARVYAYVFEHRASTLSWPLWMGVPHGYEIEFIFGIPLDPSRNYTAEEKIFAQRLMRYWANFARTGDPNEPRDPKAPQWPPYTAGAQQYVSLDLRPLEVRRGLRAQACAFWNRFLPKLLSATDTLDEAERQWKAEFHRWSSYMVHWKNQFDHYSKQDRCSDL

With `CC(CC(=O)C[C@@H](C)[C@H]1CC(=O)[C@@]2(C)C3=C(C(=O)C[C@]12C)[C@@]1(C)CC[C@H](O)C(C)(C)[C@@H]1C[C@@H]3O)C(=O)O` (some centres undefined) [GANODERIC ACID B], the results for the negative logarithm of the IC50 (pIC50) on Acetylcholinesterase and at Cholinesterase were 4.65 and below 3.70, respectively.
Consider `CC(CC(=O)C[C@@H](C)[C@H]1C[C@H](O)[C@@]2(C)C3=C(C(=O)C[C@]12C)[C@@]1(C)CCC(=O)C(C)(C)[C@@H]1CC3)C(=O)O` (some centres undefined) [GANOLUCIDIC ACID A], for which the figures for the pIC50 at Acetylcholinesterase and on Cholinesterase were 4.64 and below 3.70, respectively.
As for `C[C@H](CCC(=O)O)[C@H]1CC(=O)[C@@]2(C)C3=C(C(=O)C[C@]12C)[C@@]1(C)CCC(=O)C(C)(C)[C@@H]1C[C@@H]3O` [LUCIDENIC ACID A], the pIC50 was 4.62 on Acetylcholinesterase and below 3.70 on Cholinesterase.
As for `CCCCOC(=O)C(C)CC(=O)C[C@@H](C)[C@H]1CC(=O)[C@@]2(C)C3=C(C(=O)[C@@H](OC(C)=O)[C@]12C)[C@@]1(C)CC[C@H](O)C(C)(C)[C@@H]1CC3=O` (some centres undefined), the figures for the pIC50 at Acetylcholinesterase and at Cholinesterase were 5.03 and below 3.70, respectively.
On to `COC(=O)C(C)CC(=O)C[C@@H](C)[C@H]1C[C@H](O)[C@@]2(C)C3=C(C(=O)C[C@]12C)[C@@]1(C)CCC(=O)C(C)(C)[C@@H]1C[C@@H]3O` (some centres undefined) [METHYL GANODERATE A], for which the pIC50 is 4.52 at Acetylcholinesterase and below 3.70 on Cholinesterase.
Turning to `CCCCOC(=O)CC[C@@H](C)[C@H]1CC[C@@]2(C)C3=C(C(=O)C[C@]12C)[C@@]1(C)CC[C@H](O)C(C)(C)[C@@H]1C[C@@H]3O`, the pIC50 is 4.94 at Acetylcholinesterase and below 3.70 at Cholinesterase.
For `C/C(=C\CC[C@@H](C)[C@H]1CC[C@@]2(C)C3=CC[C@H]4C(C)(C)[C@@H](O)CC[C@]4(C)C3=CC[C@]12C)CO` [GANODEROL B] the same measures were 4.57 and below 3.70.
For `CCCCOC(=O)CC[C@@H](C)[C@H]1CC[C@@]2(C)C3=C(C(=O)C[C@]12C)[C@@]1(C)CCC(=O)C(C)(C)[C@@H]1C[C@@H]3O` the same measures were 4.91 and below 3.70.
Regarding `C/C(=C\CC[C@@H](C)[C@H]1CC[C@@]2(C)C3=CC[C@H]4C(C)(C)[C@@H](O)CC[C@]4(C)C3=CC[C@]12C)C(=O)O` [GANODERIC ACID Y], the pIC50 was 4.68 on Acetylcholinesterase and below 3.70 at Cholinesterase.
For `C/C(=C\CC[C@@H](C)[C@H]1CC[C@@]2(C)C3=C(CC[C@]12C)[C@@]1(C)CC[C@H](O)C(C)(C)[C@@H]1CC3=O)CO` [LUCIDADIOL] the same measures were 4.51 and 3.81.
Consider `C[C@H](CC(=O)C[C@@H](C)[C@H]1CC(=O)[C@@]2(C)C3=C(C(=O)C[C@]12C)[C@@]1(C)CCC(=O)C(C)(C)[C@@H]1CC3=O)C(=O)O` [GANODERIC ACID E], for which the pIC50 at Acetylcholinesterase is 4.74; at Cholinesterase, below 3.70.
With `COC(=O)CC[C@@H](C)[C@H]1CC(=O)[C@@]2(C)C3=C(C(=O)[C@@H](OC(C)=O)[C@]12C)[C@@]1(C)CC[C@H](O)C(C)(C)[C@@H]1CC3=O` [METHYL LUCIDENATE E2], the pIC50 at Acetylcholinesterase is 4.77; at Cholinesterase, below 3.70.
For the compound `C[C@H](CC[C@@H](O)C(C)(C)O)[C@H]1CC[C@@]2(C)C3=CC[C@H]4C(C)(C)C(=O)CC[C@]4(C)C3=CC[C@]12C` [GANODERMANONDIOL], the pIC50 at Acetylcholinesterase is 4.60; on Cholinesterase, below 3.70.
Turning to `C[C@H](CCC=C(CO)CO)[C@H]1CC[C@@]2(C)C3=CC[C@H]4C(C)(C)C(=O)CC[C@]4(C)C3=CC[C@]12C` [GANODERIOL F], the results for the pIC50 at Acetylcholinesterase and at Cholinesterase were 4.66 and below 3.70, respectively.
Consider `C[C@H](CC[C@H](O)[C@](C)(O)CO)[C@H]1CC[C@@]2(C)C3=CC[C@H]4C(C)(C)C(=O)CC[C@]4(C)C3=CC[C@]12C` [GANODERMANONTRIOL], for which the pIC50 at Acetylcholinesterase is 4.65; on Cholinesterase, below 3.70.
For `C[C@H](CCC(=O)O)[C@H]1CC(=O)[C@@]2(C)C3=C(C(=O)C[C@]12C)[C@@]1(C)CC[C@H](O)C(C)(C)[C@@H]1C[C@@H]3O` [LUCIDENIC ACID N] the same measures were 4.59 and 3.73.
As to `COC(=O)[C@H](C)CC(=O)C[C@@H](C)[C@H]1C[C@@H]2OC(C)(C)O[C@H]3C[C@H]4C(C)(C)C(=O)CC[C@]4(C)C4=C3[C@@]2(C)[C@]1(C)CC4=O` [METHYL GANODERATE A ACETONIDE], the pIC50 at Acetylcholinesterase was 4.74; at Cholinesterase it was below 3.70.

These data come from ChEMBL document CHEMBL1914414, “Selective cholinesterase inhibition by lanostane triterpenes from fruiting bodies of Ganoderma lucidum” (Bioorg Med Chem Lett, 2011).
